Measured values from patent US8003082B2, “Photostable organic sunscreen composition” (Merck Patent GmbH, priority 2003, dated 2011).
Blank lines part the entries; values can stand above or below the compound they belong to.

Key:
[1] = Photostabilization of Avobenzone in formulation, thin films between glass slides under UV-B light, loss in absorption; assay type: physicochemical
Protocol: Photostabilization of Avobenzone (in formulation) was performed using thin films (about 50-100μ thick, transmission signals in the non-absorbing regions must be above 85%) of formulated materials placed between two glass slides and then irradiated under UV-B light (Q-U-V Accelerated Weather Tester, The Q Panel Company). Photodegradation of Avobenzone was calculated from the relative loss in absorption of Avobenzone in formulated products before and after irradiation. 1 hour irradiation under UV-B light is equal to about 1.4 MED (minimal erythemal dose). A Beckman Coulter DU-640 spectrophotometer at a scan speed of 120 nm/min was used for this study. All spectra were recorded from 200 to 600 nm.

[2] = In vitro critical wavelength and SPF; settings: Avobenzone (2%) in the presence of HMS (6%) and Oxynex ST (2%)
Protocol: The target SPF range can be achieved with a combination of both inorganic and organic chromophoric compounds. SPF is determined by techniques well known in the art, on human skin as described in the Federal Register, Aug. 25, 1978, Vol. 43, No. 166, pages 38259-38269 (Sunscreen Drug Products for Over-The-Counter Human Use, Food and Drug Administration). SPF values can also be approximated using in-vitro models as described, for example, in J. Soc. Cosmet. Chem. 44:127-133 (May/June 1989).

[3] = Solubility of Avobenzone in Oxynex ST + HMS on storage; assay type: physicochemical; set-up: key: Ppt = precipitate
Protocol: The solubility of Avobenzone was tested in various ratios of Oxynex® ST and HMS.

[4] = Solubility of Avobenzone in Oxynex ST + OMC on storage; assay type: physicochemical; set-up: key: Ppt = precipitate
[5] = Diphenylpicryl Hydrazide (DPPH) antioxidant test; assay type: biochemical; settings: DPPH test method
Protocol: Di-2-ethylhexyl-3,5-dimethoxy-4-hydroxy-benzalmalonate is a yellow viscous liquid having a λmax at 332 nm (MeOH, εmax 18,600 cm^−1 mol^−1) or 337 nm (EtOH:H2O/70:30, εmax 19,840 cm^−1 mol^−1).
A DPPH concentrate (2.5×) of 25 mg of 1,1-Diphenyl-2-Picyrl-Hydrazyl ACS#1898-66-4 (Sigma #D-9132, lot 99H3601) dissolved in 250 mL ethanol (USP), is prepared fresh on the measurement date. A DPPH working solution is then prepared by diluting 100 mL of this concentrate to a final volume of 250 mL (100 μM/mL). A blank 13×100 mm borosilicate glass screw top tube of ethanol (USP) is used to zero the spectrometer (Milton Roy, Spectronic 20+) at 517 nm and a control tube of DPPH working solution is measured under identical conditions, and taken as 0% activity. […] After 20 minutes, the absorbance of each sample is read at 517 nm.
The percent reducing activity (% RA) is calculated using the following equation: […]
Where A(0) is the absorbance value of the DPPH working solution at 517 nm zeroed against an ethanol blank and A(20) is the absorbance at 517 nm, 20 minutes after combining the antioxidant with the DPPH working solution.
The concentration of antioxidant (mg/ml) in the final assay mixture is calculated based on the dilution of respective aliquots of each compound in the final assay volume and % RA tabulated and plotted as percent activity at each concentration in the dilution series: […]

Avobenzone stability [1]: 24% | Solubility of Avobenzone in the Oxynex ® ST Photostabilizer + HMS ([3]; Avobenzone/Oxynex ST/HMS 15/15/70, storage 4° C., 1 week): Clear | Solubility of Avobenzone in the Oxynex ® ST Photostabilizer + HMS ([3]; Avobenzone/Oxynex ST/HMS 15/15/70, storage 4° C., 2 weeks): Crystal? | Solubility of Avobenzone in the Oxynex ® ST Photostabilizer + HMS ([3]; Avobenzone/Oxynex ST/HMS 15/15/70, storage 4° C., 3 weeks): Crystal? | Solubility of Avobenzone in the Oxynex ® ST Photostabilizer + HMS ([3]; Avobenzone/Oxynex ST/HMS 15/15/70, storage 4° C., 6 weeks): Ppt | Solubility of Avobenzone in the Oxynex ® ST Photostabilizer + HMS ([3]; Avobenzone/Oxynex ST/HMS 15/15/70, storage 4° C., 24 hr): Clear | Solubility of Avobenzone in the Oxynex ® ST Photostabilizer + HMS ([3]; Avobenzone/Oxynex ST/HMS 15/15/70, storage RT, 1 week): Clear | Solubility of Avobenzone in the Oxynex ® ST Photostabilizer + HMS ([3]; Avobenzone/Oxynex ST/HMS 15/15/70, storage RT, 2 weeks): Clear | Solubility of Avobenzone in the Oxynex ® ST Photostabilizer + HMS ([3]; Avobenzone/Oxynex ST/HMS 15/15/70, storage RT, 3 weeks): Clear | Solubility of Avobenzone in the Oxynex ® ST Photostabilizer + HMS ([3]; Avobenzone/Oxynex ST/HMS 15/15/70, storage RT, 6 weeks): Clear | Solubility of Avobenzone in the Oxynex ® ST Photostabilizer + HMS ([3]; Avobenzone/Oxynex ST/HMS 15/15/70, storage RT, 24 hr): Clear | Solubility of Avobenzone in the Oxynex ® ST Photostabilizer + HMS ([3]; Avobenzone/Oxynex ST/HMS 20/20/60, storage 4° C., 1 week): Clear | Solubility of Avobenzone in the Oxynex ® ST Photostabilizer + HMS ([3]; Avobenzone/Oxynex ST/HMS 20/20/60, storage 4° C., 2 weeks): Crystal? | Solubility of Avobenzone in the Oxynex ® ST Photostabilizer + HMS ([3]; Avobenzone/Oxynex ST/HMS 20/20/60, storage 4° C., 3 weeks): Crystal? | Solubility of Avobenzone in the Oxynex ® ST Photostabilizer + HMS ([3]; Avobenzone/Oxynex ST/HMS 20/20/60, storage 4° C., 6 weeks): Ppt | Solubility of Avobenzone in the Oxynex ® ST Photostabilizer + HMS ([3]; Avobenzone/Oxynex ST/HMS 20/20/60, storage 4° C., 24 hr): Clear | Solubility of Avobenzone in the Oxynex ® ST Photostabilizer + HMS ([3]; Avobenzone/Oxynex ST/HMS 20/20/60, storage RT, 1 week): Clear | Solubility of Avobenzone in the Oxynex ® ST Photostabilizer + HMS ([3]; Avobenzone/Oxynex ST/HMS 20/20/60, storage RT, 2 weeks): Clear | Solubility of Avobenzone in the Oxynex ® ST Photostabilizer + HMS ([3]; Avobenzone/Oxynex ST/HMS 20/20/60, storage RT, 3 weeks): Clear | Solubility of Avobenzone in the Oxynex ® ST Photostabilizer + HMS ([3]; Avobenzone/Oxynex ST/HMS 20/20/60, storage RT, 6 weeks): Clear | Solubility of Avobenzone in the Oxynex ® ST Photostabilizer + HMS ([3]; Avobenzone/Oxynex ST/HMS 20/20/60, storage RT, 24 hr): Clear | Solubility of Avobenzone in the Oxynex ® ST Photostabilizer + HMS ([3]; Avobenzone/Oxynex ST/HMS 25/25/50, storage 4° C., 1 week): Ppt | Solubility of Avobenzone in the Oxynex ® ST Photostabilizer + HMS ([3]; Avobenzone/Oxynex ST/HMS 25/25/50, storage 4° C., 2 weeks): Ppt | Solubility of Avobenzone in the Oxynex ® ST Photostabilizer + HMS ([3]; Avobenzone/Oxynex ST/HMS 25/25/50, storage 4° C., 3 weeks): Ppt | Solubility of Avobenzone in the Oxynex ® ST Photostabilizer + HMS ([3]; Avobenzone/Oxynex ST/HMS 25/25/50, storage 4° C., 6 weeks): Ppt | Solubility of Avobenzone in the Oxynex ® ST Photostabilizer + HMS ([3]; Avobenzone/Oxynex ST/HMS 25/25/50, storage 4° C., 24 hr): Clear | Solubility of Avobenzone in the Oxynex ® ST Photostabilizer + HMS ([3]; Avobenzone/Oxynex ST/HMS 25/25/50, storage RT, 1 week): Clear | Solubility of Avobenzone in the Oxynex ® ST Photostabilizer + HMS ([3]; Avobenzone/Oxynex ST/HMS 25/25/50, storage RT, 2 weeks): Crystal? | Solubility of Avobenzone in the Oxynex ® ST Photostabilizer + HMS ([3]; Avobenzone/Oxynex ST/HMS 25/25/50, storage RT, 3 weeks): Ppt | Solubility of Avobenzone in the Oxynex ® ST Photostabilizer + HMS ([3]; Avobenzone/Oxynex ST/HMS 25/25/50, storage RT, 6 weeks): Ppt | Solubility of Avobenzone in the Oxynex ® ST Photostabilizer + HMS ([3]; Avobenzone/Oxynex ST/HMS 25/25/50, storage RT, 24 hr): Clear | Solubility of Avobenzone in the Oxynex ® ST Photostabilizer + HMS ([3]; Avobenzone/Oxynex ST/HMS 30/30/40, storage 4° C., 1 week): Ppt | Solubility of Avobenzone in the Oxynex ® ST Photostabilizer + HMS ([3]; Avobenzone/Oxynex ST/HMS 30/30/40, storage 4° C., 2 weeks): Ppt | Solubility of Avobenzone in the Oxynex ® ST Photostabilizer + HMS ([3]; Avobenzone/Oxynex ST/HMS 30/30/40, storage 4° C., 3 weeks): Ppt | Solubility of Avobenzone in the Oxynex ® ST Photostabilizer + HMS ([3]; Avobenzone/Oxynex ST/HMS 30/30/40, storage 4° C., 6 weeks): Ppt | Solubility of Avobenzone in the Oxynex ® ST Photostabilizer + HMS ([3]; Avobenzone/Oxynex ST/HMS 30/30/40, storage 4° C., 24 hr): Clear | Solubility of Avobenzone in the Oxynex ® ST Photostabilizer + HMS ([3]; Avobenzone/Oxynex ST/HMS 30/30/40, storage RT, 1 week): Ppt | Solubility of Avobenzone in the Oxynex ® ST Photostabilizer + HMS ([3]; Avobenzone/Oxynex ST/HMS 30/30/40, storage RT, 2 weeks): Ppt | Solubility of Avobenzone in the Oxynex ® ST Photostabilizer + HMS ([3]; Avobenzone/Oxynex ST/HMS 30/30/40, storage RT, 3 weeks): Ppt | Solubility of Avobenzone in the Oxynex ® ST Photostabilizer + HMS ([3]; Avobenzone/Oxynex ST/HMS 30/30/40, storage RT, 6 weeks): Ppt | Solubility of Avobenzone in the Oxynex ® ST Photostabilizer + HMS ([3]; Avobenzone/Oxynex ST/HMS 30/30/40, storage RT, 24 hr): Clear | Solubility of Avobenzone in the Oxynex ® ST Photostabilizer + OMC ([4]; Avobenzone/Oxynex ST/OMC 20/20/60, storage 4° C., 1 week): Clear | Solubility of Avobenzone in the Oxynex ® ST Photostabilizer + OMC ([4]; Avobenzone/Oxynex ST/OMC 20/20/60, storage 4° C., 2 weeks): Crystal? | Solubility of Avobenzone in the Oxynex ® ST Photostabilizer + OMC ([4]; Avobenzone/Oxynex ST/OMC 20/20/60, storage 4° C., 48 hr): Clear | Solubility of Avobenzone in the Oxynex ® ST Photostabilizer + OMC ([4]; Avobenzone/Oxynex ST/OMC 20/20/60, storage RT, 1 week): Clear | Solubility of Avobenzone in the Oxynex ® ST Photostabilizer + OMC ([4]; Avobenzone/Oxynex ST/OMC 20/20/60, storage RT, 2 weeks): Clear | Solubility of Avobenzone in the Oxynex ® ST Photostabilizer + OMC ([4]; Avobenzone/Oxynex ST/OMC 20/20/60, storage RT, 48 hr): Clear | Solubility of Avobenzone in the Oxynex ® ST Photostabilizer + OMC ([4]; Avobenzone/Oxynex ST/OMC 25/25/50, storage 4° C., 1 week): Ppt | Solubility of Avobenzone in the Oxynex ® ST Photostabilizer + OMC ([4]; Avobenzone/Oxynex ST/OMC 25/25/50, storage 4° C., 2 weeks): Ppt | Solubility of Avobenzone in the Oxynex ® ST Photostabilizer + OMC ([4]; Avobenzone/Oxynex ST/OMC 25/25/50, storage 4° C., 48 hr): Clear | Solubility of Avobenzone in the Oxynex ® ST Photostabilizer + OMC ([4]; Avobenzone/Oxynex ST/OMC 25/25/50, storage RT, 1 week): Clear | Solubility of Avobenzone in the Oxynex ® ST Photostabilizer + OMC ([4]; Avobenzone/Oxynex ST/OMC 25/25/50, storage RT, 2 weeks): Crystal? | Solubility of Avobenzone in the Oxynex ® ST Photostabilizer + OMC ([4]; Avobenzone/Oxynex ST/OMC 25/25/50, storage RT, 48 hr): Clear | Solubility of Avobenzone in the Oxynex ® ST Photostabilizer + OMC ([4]; Avobenzone/Oxynex ST/OMC 30/20/50, storage 4° C., 48 hr): Few | Solubility of Avobenzone in the Oxynex ® ST Photostabilizer + OMC ([4]; Avobenzone/Oxynex ST/OMC 30/20/50, storage RT, 48 hr): Few
Compound: COc1ccc(C(=O)CC(=O)c2ccc(C(C)(C)C)cc2)cc1 [Avobenzone, 4-(tert-butyl)-4′-methoxydibenzoylmethane]
SPF [2]: > 30 | critical wavelength [2]: appropriate

antioxidant activity (IC50) [5]: 85 ± 8 µg/mL
Compound: CCCCC(CC)COC(=O)C(=Cc1cc(OC)c(O)c(OC)c1)C(=O)OCC(CC)CCCC (stereo not drawn) [Oxynex ST, Di-(2-Ethylhexyl)-3,5-dimethoxy-4-hydroxy benzylidene malonate]

stabilization of Avobenzone ([1]; combined with Homosalate, ratio (w/w) 2:6:2): failed to stabilize | effect on the photostabilization of Avobenzone ([1]; photostabilizer used alone): practically no effect
Compound: CCCCC(CC)COC(=O)c1ccc2cc(C(=O)OCC(CC)CCCC)ccc2c1 (stereo not drawn) [TQ, Di-2-ethylhexyl-napthylate]
